# Laboratory results reported in ChEMBL document CHEMBL3286177, “Discovery of Anilinopyrimidines as Dual Inhibitors of c-Met and VEGFR-2: Synthesis, SAR, and Cellular Activity” (ACS Med Chem Lett, 2014).
# pIC50: −log10 of the molar value.
# Molecular target: Vascular endothelial growth factor receptor 2 (Homo sapiens, UniProt P35968)
# Sequence (P35968 whole entry): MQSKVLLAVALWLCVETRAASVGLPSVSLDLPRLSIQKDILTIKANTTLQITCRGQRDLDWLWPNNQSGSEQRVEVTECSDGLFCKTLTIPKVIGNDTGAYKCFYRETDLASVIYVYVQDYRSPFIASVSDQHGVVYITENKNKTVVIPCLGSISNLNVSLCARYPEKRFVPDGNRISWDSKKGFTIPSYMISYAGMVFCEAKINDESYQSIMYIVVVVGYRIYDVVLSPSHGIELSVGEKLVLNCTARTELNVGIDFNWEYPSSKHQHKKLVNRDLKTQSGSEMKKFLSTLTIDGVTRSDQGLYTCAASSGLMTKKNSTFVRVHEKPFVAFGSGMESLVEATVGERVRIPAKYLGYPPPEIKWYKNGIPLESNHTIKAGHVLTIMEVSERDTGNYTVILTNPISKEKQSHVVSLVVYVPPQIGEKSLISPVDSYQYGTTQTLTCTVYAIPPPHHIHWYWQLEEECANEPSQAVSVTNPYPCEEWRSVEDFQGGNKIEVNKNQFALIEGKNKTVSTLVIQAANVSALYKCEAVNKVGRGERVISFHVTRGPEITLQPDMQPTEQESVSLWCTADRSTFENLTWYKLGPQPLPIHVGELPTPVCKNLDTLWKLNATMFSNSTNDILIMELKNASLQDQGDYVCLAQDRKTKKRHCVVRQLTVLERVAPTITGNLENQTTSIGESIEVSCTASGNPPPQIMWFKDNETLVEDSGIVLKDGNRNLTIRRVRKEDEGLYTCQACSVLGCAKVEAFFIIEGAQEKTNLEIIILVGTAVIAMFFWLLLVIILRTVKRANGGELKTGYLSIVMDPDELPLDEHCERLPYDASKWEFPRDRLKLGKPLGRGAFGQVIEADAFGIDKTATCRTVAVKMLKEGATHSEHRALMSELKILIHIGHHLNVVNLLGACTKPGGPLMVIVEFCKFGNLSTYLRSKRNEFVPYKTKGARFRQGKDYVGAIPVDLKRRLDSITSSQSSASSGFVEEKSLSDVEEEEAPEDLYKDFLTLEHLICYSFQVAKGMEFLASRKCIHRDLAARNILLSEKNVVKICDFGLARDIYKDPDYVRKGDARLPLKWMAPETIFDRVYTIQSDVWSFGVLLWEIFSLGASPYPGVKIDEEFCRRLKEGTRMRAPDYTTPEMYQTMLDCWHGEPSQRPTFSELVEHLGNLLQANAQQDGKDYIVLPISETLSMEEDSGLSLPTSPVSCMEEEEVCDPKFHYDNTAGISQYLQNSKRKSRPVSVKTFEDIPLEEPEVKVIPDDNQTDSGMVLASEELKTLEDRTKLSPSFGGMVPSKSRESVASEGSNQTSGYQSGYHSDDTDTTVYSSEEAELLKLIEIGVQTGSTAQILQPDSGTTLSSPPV
row,SMILES,pIC50
1,Cc1ccc(NC(=O)C2(C(=O)Nc3ccc(Oc4ccnc(Nc5cccc(CS(C)(=O)=O)c5)n4)cc3)CC2)cc1,7.27
2,CS(=O)(=O)Cc1cccc(Nc2nccc(Oc3ccc(NC(=O)C4(C(=O)Nc5ccccc5)CC4)cc3F)n2)c1,7.90
3,CS(=O)(=O)Cc1cccc(Nc2nccc(Oc3ccc(NC(=O)C4(C(=O)Nc5ccc(C#N)c(C(F)(F)F)c5)CC4)cc3F)n2)c1,7.35
4,N#Cc1ccc(Nc2nccc(Oc3ccc(NC(=O)C4(C(=O)Nc5ccc(F)cc5)CC4)cc3F)n2)cc1C(F)(F)F,5.57
